Assay [1] deals with T1, CtBP (Homo sapiens, UniProt Q13363).
T1 construct: 6xHis
Description: Fluorescence polarization competition of unlabeled peptide with FITC-labeled 14mer peptide. It is filed as binding. The protocol:
(§1) Additional peptides were tested for in vitro inhibitory potency (Table 5). For Kd determination, FITC-labeled peptide (FITC-peptide) was incubated with varying concentrations of CtBP. The fluorescence polarization values of the FITC-peptide were measured and plotted against CtBP concentration to determine Kd of the FITC-peptide with CtBP using the Prism program. […] For IC50 determination, a fluorescence polarization assay was utilized. […] Increasing concentrations of unlabeled peptide were added to compete with the FITC-labeled peptide, leading to a decreased fluorescence polarization value.

Assay [2] addresses T2, CtBP-E1A interaction (Homo sapiens, UniProt Q13363). Description: CtBP-E1A interaction inhibition (AlphaScreen / fluorescence polarization competition assay). The class given is binding. To be noted: IC50 value. How it is done:
The ability of peptides to inhibit CtBP binding can be monitored by two biochemical assays. An AlphaScreen assay (Perkin-Elmer) was developed that is capable of detecting the CtBP-E1A interaction. Purified GST-E1A and 6xHis-CtBP are incubated with glutathione-conjugated donor beads and nickel-chelated acceptor beads respectively. The interaction between CtBP and E1A brings the donor and acceptor beads in close proximity, which produces a fluorescence signal after laser excitation and can be detected using the EnVision plate reader. A peptide that inhibits this interaction will limit the proximity of the beads and thus a loss in fluorescence signal will occur. In addition to the alphascreen, a fluorescence polarization based assay with a fluorescein-labeled 14mer E1A peptide ([…] (SEQ ID NO: 1)) was also developed. Purified 6xHis-CtBP is incubated with the fluorescein-labeled E1A peptide and changes in the polarization value of the labeled peptide are detected using the EnVision plate reader. A decrease in peptide binding to CtBP can be detected by an […], and used to monitor peptide inhibition. IC50 values of designed peptides can be determined using either of these assays through the addition of increasing amounts in each well and monitoring the degree of inhibition of the CtBP-E1A interaction.
Multiple amino acid sequences may appear at positions outside the conserved peptide motif. The most frequently occurring amino acids in these positions are used to design the peptides that bind CtBP with the highest affinity. The affinity of these new peptides is compared to the original 14mer E1A peptide (SEQ ID NO:1) by comparing the IC50 of these peptides in inhibiting the CtBP/E1A protein interaction in a competition assay. The peptide identified from phage display that competes with the CtBP/E1A protein interaction better than the original 14mer E1A peptide is selected and conjugated to the cell penetrating peptide of the present invention. Also provided in Table 3 are […] for selected peptides.
The ability of peptides to inhibit CtBP binding can be monitored by two biochemical assays. An AlphaScreen assay (Perkin-Elmer) was developed that is capable of detecting the CtBP-E1A interaction. Purified GST-E1A and 6xHis-CtBP are incubated with glutathione-conjugated donor beads and nickel-chelated acceptor beads respectively. The interaction between CtBP and E1A brings the donor and acceptor beads in close proximity, which produces a fluorescence signal after laser excitation and can be detected using the EnVision plate reader. A peptide that inhibits this interaction will limit the proximity of the beads and thus a loss in fluorescence signal will occur. In addition to the alphascreen, a fluorescence polarization based assay with a fluorescein-labeled 14mer E1A peptide ([…] (SEQ ID NO: 1)) was also developed. Purified 6xHis-CtBP is incubated with the fluorescein-labeled E1A peptide and changes in the polarization value of the labeled peptide are detected using the EnVision plate reader. A decrease in peptide binding to CtBP can be detected by an […], and used to monitor peptide inhibition. IC50 values of designed peptides can be determined using either of these assays through the addition of increasing amounts in each well and monitoring the degree of inhibition of the CtBP-E1A interaction. Also provided in Table 4 are IC50 for selected peptides.
Background: Bead proximity is the source of the signal in Alpha formats.

Assay [3] addresses T2, CtBP-E1A interaction. The following applies: read-out: IC50 of inhibition of the CtBP/E1A interaction in vitro; Zhang et al. 2000; cited from earlier work.
Assay [4] deals with T1, CtBP. Description: Fluorescence polarization Kd determination of FITC-peptide with CtBP. It is filed as binding. How it is done: as §1
For orientation: Fluorescence polarisation rises when a labelled molecule tumbles more slowly, as on binding a larger partner.

Assay [5] has as its system H1299 non-small cell lung carcinoma cells. In words: Cell viability, H1299. The class given is cell-based, human. The following applies: H1299, CtBP overexpressing, FIG. 5. From the text: (§2) The Tat peptide alone has no effect on these cells.
For another assay, the system named is A375 melanoma cells. In words: Cell viability, A375. It is filed as cell-based. The following applies: A375, CtBP overexpressing, FIG. 5.
Text: as §2

The subject of another assay is 3T3 cells. Description: Cell viability, 3T3. It is filed as cell-based, mouse. The following applies: 3T3, does not significantly overexpress CtBP, FIG. 5.
Text: as §2

For assay [6], the system named is IMQ-based psoriasis model. In words: IMQ-based psoriasis model. It is filed as in vivo, mouse. The following applies: for resistance to IMQ-induction of psoriasis: treated mice versus PBS control. The protocol:
To elucidate the molecular mechanisms for the Pep1-E1A blocker, H&E and immunostaining for proliferative and inflammatory markers was performed.

In assay [7] the test system is IMQ-based psoriasis model. Description: IMQ-based psoriasis model. The class given is in vivo, mouse. The following applies: FIG. 15B.
Setting [8] is: Table 3, inhibition of CtBP/E1A protein interaction.

Results on twelve molecules are retold here after patent US9683025B2, “Methods and compositions for treating cancer and inflammatory diseases” (The Regents of the University of Colorado, A Body Corporate, priority 2013, dated 2017).

“Also recorded” adds a separate entry of the source. Read-outs that look alike come from different tables or passages of the source. Where a SMILES comes first, the peptide text is derived from it. Where no end group is shown, it is not given here.

Take `CC(C)C[C@H](NC(=O)[C@H](CC(=O)O)NC(=O)[C@H](CC(C)C)NC(=O)[C@@H]1CCCN1C(=O)CNC(=O)[C@H](CC(=O)O)NC(=O)CNC(=O)CN)C(=O)N[C@@H](CS)C(=O)N[C@@H](CS)C(=O)N[C@@H](CCCNC(=N)N)C(=O)N[C@@H](CCCCN)C(=O)N[C@@H](CCCNC(=N)N)C(=O)N1CCC[C@H]1C(=O)O` [SEQ ID NO:133] (H-GGDGPLDLCCRKRP-OH; N-terminus and C-terminus assumed): the IC50 at CtBP [1] came out at 18.8 µM.
`CC(C)C[C@H](NC(=O)[C@H](CC(N)=O)NC(=O)[C@H](CC(C)C)NC(=O)[C@@H]1CCCN1C(=O)[C@H](CCC(=O)O)NC(=O)[C@H](CC(=O)O)NC(=O)[C@@H](NC(=O)[C@@H]1CCCN1)[C@@H](C)O)C(=O)N[C@@H](CO)C(=O)N[C@@H](CC(C)C)C(=O)N[C@@H](CCCCN)C(=O)N[C@@H](CCCNC(=N)N)C(=O)N1CCC[C@H]1C(=O)N[C@@H](CCCNC(=N)N)C(=O)O` [SEQ ID NO:134] (H-PTDEPLNLSLKRPR-OH; N-terminus and C-terminus assumed) showed an IC50 at CtBP [1] of 4.4 µM.
As for `CC(C)C[C@H](NC(=O)[C@H](CC(=O)O)NC(=O)[C@H](CC(C)C)NC(=O)[C@@H]1CCCN1C(=O)[C@H](CCC(N)=O)NC(=O)CNC(=O)[C@@H]1CCCN1C(=O)[C@H](CCC(=O)O)NC(=O)[C@H](CCC(=O)O)NC(=O)[C@H](CC(C)C)NC(=O)[C@H](CCC(N)=O)NC(=O)[C@@H]1CCCN1C(=O)[C@@H]1CCCN1C(=O)[C@H](CCCNC(=N)N)NC(=O)[C@H](CCCNC(=N)N)NC(=O)[C@H](CCCNC(=N)N)NC(=O)[C@H](CCC(N)=O)NC(=O)[C@H](CCCNC(=N)N)NC(=O)[C@H](CCCNC(=N)N)NC(=O)[C@H](CCCCN)NC(=O)[C@H](CCCCN)NC(=O)[C@H](CCCNC(=N)N)NC(=O)CN)C(=O)N[C@@H](CO)C(=O)N[C@@H](CS)C(=O)N[C@@H](CCC(N)=O)C(=O)N[C@@H](CCCNC(=N)N)C(=O)N1CCC[C@H]1C(=O)N[C@@H](CCCNC(=N)N)C(=O)N[C@@H](CC(=O)O)C(=O)N[C@@H](Cc1ccc(O)cc1)C(=O)N[C@@H](CCCCN)C(=O)N[C@@H](CC(=O)O)C(=O)N[C@@H](CC(=O)O)C(=O)N[C@@H](CC(=O)O)C(=O)N[C@@H](CC(=O)O)C(=O)N[C@@H](CCCCN)C(=O)O` [Tat-E1A-Flag (K239Q)] (H-GRKKRRQRRRPPQLEEPGQPLDLSCQRPRDYKDDDDK-OH; N-terminus and C-terminus assumed), at CtBP-E1A interaction [2] (setting [8]), the IC50 was 7.7 µM.
Turning to `CC(C)C[C@H](NC(=O)[C@H](CCC(=O)O)NC(=O)[C@H](CC(=O)O)NC(=O)[C@H](CC(C)C)NC(=O)[C@@H]1CCCN1C(=O)[C@H](CCC(N)=O)NC(=O)CNC(=O)[C@@H]1CCCN1C(=O)[C@H](CCC(=O)O)NC(=O)[C@H](CCC(=O)O)NC(=O)[C@H](CC(C)C)NC(=O)[C@H](CCC(N)=O)NC(=O)[C@@H]1CCCN1C(=O)[C@@H]1CCCN1C(=O)[C@H](CCCNC(=N)N)NC(=O)[C@H](CCCNC(=N)N)NC(=O)[C@H](CCCNC(=N)N)NC(=O)[C@H](CCC(N)=O)NC(=O)[C@H](CCCNC(=N)N)NC(=O)[C@H](CCCNC(=N)N)NC(=O)[C@H](CCCCN)NC(=O)[C@H](CCCCN)NC(=O)[C@H](CCCNC(=N)N)NC(=O)CN)C(=O)N[C@@H](CS)C(=O)N[C@@H](CCCCN)C(=O)N[C@@H](CCCNC(=N)N)C(=O)N1CCC[C@H]1C(=O)N[C@@H](CCCNC(=N)N)C(=O)N[C@@H](CC(=O)O)C(=O)N[C@@H](Cc1ccc(O)cc1)C(=O)N[C@@H](CCCCN)C(=O)N[C@@H](CC(=O)O)C(=O)N[C@@H](CC(=O)O)C(=O)N[C@@H](CC(=O)O)C(=O)N[C@@H](CC(=O)O)C(=O)N[C@@H](CCCCN)C(=O)O` [Tat-E1A-Flag (LS-EL)] (H-GRKKRRQRRRPPQLEEPGQPLDELCKRPRDYKDDDDK-OH), the IC50 on CtBP-E1A interaction [2] (setting [8]) was more than 200 µM; at CtBP-E1A interaction [2] (Table 4, inhibition of CtBP-E1A interaction), more than 200 µM.
For `CC(C)C[C@H](NC(=O)[C@H](CC(=O)O)NC(=O)[C@H](CC(C)C)NC(=O)[C@@H]1CCCN1C(=O)[C@H](CCC(N)=O)NC(=O)CNC(=O)[C@@H]1CCCN1C(=O)[C@@H](N)CCC(=O)O)C(=O)N[C@@H](CO)C(=O)N[C@@H](CS)C(=O)N[C@@H](CCCCN)C(=O)N[C@@H](CCCNC(=N)N)C(=O)N1CCC[C@H]1C(=O)N[C@@H](CCCNC(=N)N)C(=O)O` [Wild-type, reference compound] (H-EPGQPLDLSCKRPR-OH; N-terminus and C-terminus assumed), the IC50 on CtBP-E1A interaction [3] is approximately 7 µM; at CtBP-E1A interaction [2] (setting [8]), 7.26 µM; at CtBP [1] it was 6 µM. On CtBP [4], binding was put at a Kd of 4.3 µM.
As to EPGQPLSLSCKRPR [SEQ ID NO:135], the IC50 entry at CtBP [1] (Table 5, 50% reduction of fluorescence polarization value) is on record as “did not inhibit CtBP”.
Regarding EQTVPVDLSVARPR [SEQ ID NO:132], the Kd was 2.2 µM on CtBP [4] (Table 5, FITC-peptide with CtBP, read-out: Kd) and 2.2 µM at CtBP [4] (affinity to CtBP1, Example 12, read-out: Kd).
With “GRKKRRQRRRPPQ [Tat, cell penetrating peptide alone, control, reference compound]”, the cell viability result (in assay [5]; in the assay on A375 melanoma cells; in the assay with 3T3 cells) was “no effect” each time.
Take “GRKKRRQRRRPPQGGEQTVPVDLSVARPRGL (also: conjugated to FITC) [Tat-E1A peptide]”: the “resistance to IMQ-induction of psoriasis” value in assay [6] is on record as “showed resistance”. In addition, the psoriasis-like phenotype entry in assay [7] (Example 12, subcutaneously applied on the skin) was “significantly reduced”.
Turning to “GSHMKETWWETWWTEWSQPKKKRKVLEEPGQPLDLSCQRPRDYKDDDDK [Pep1-E1A-Flag (K239Q) GSHM v.1]”, in assay [6], the “resistance to IMQ-induction of psoriasis” value is “showed resistance”.
“KETWWETWWTEWSQPKKKRKVLEEPGQPLDLSCKRPR [Pep1-E1A]”: in assay [6] (applied on the skin (data not shown)), the psoriasis-like phenotype entry is reported as “largely reduced”. In addition, the “IMQ-induced epithelial hyperplasia and inflammatory cell infiltration in the stroma (H&E)” value in assay [6] (compared to PBS-treated skin, FIG. 7A) is listed as “decreases”. Besides, in assay [6] (immunostaining, FIG. 7B), the “BrdU incorporation (proliferation)” value is listed as “largely reduced; also recorded: decreased” and the “CD45 staining (inflammation)” value is listed as “largely prevented; also recorded: decreased”. For the same molecule, the psoriasis-like phenotype result in [6] (injected subcutaneously, FIG. 7) is recorded as “largely reduced”. Further, in assay [6], the “resistance to IMQ-induction of psoriasis” value is reported as “showed resistance”. Further, in [7] (versus PBS), the “erythema, thickening and scaling (cumulative score)” value is recorded as “Reduction”.
“KETWWETWWTEWSQPKKKRKVLEEPGQPLDLSCKRPRDYKDDDDK [Pep1-E1A-Flag]” showed an IC50 on CtBP-E1A interaction [2] (setting [8]) of 26.6 µM.

The term Kd denotes a measure of binding affinity in units of concentration.
